Measured values reported in patent US12318382B2, “Methods of treating rheumatic diseases using trimetazidine-based compounds” (IMBRIA PHARMACEUTICALS, INC., priority 2018, dated 2025).

Assay: Stability of CV-8972 in aqueous solution at different concentrations and pH
Assay type: physicochemical
Experimental: The stability of CV-8972 was analyzed. Aqueous samples containing CV-8972 at different concentrations and pH were incubated for various periods and analyzed.
Form A of CV-8972 were analyzed for stability in aqueous solution. Aqueous samples containing CV-8972 at different concentrations and pH were incubated for various periods and analyzed.

Retention Time 5.6 (purity of CV-8972) (276-MBA-172 2 mg/mL pH 6 (Form A), 0 hrs): 98.01 | Retention Time 5.6 (purity of CV-8972) (276-MBA-172 2 mg/mL pH 6 (Form A), 1 hrs): 97.22 | Retention Time 5.6 (purity of CV-8972) (276-MBA-172 2 mg/mL pH 6 (Form A), 4 hrs): 97.01 | Retention Time 5.6 (purity of CV-8972) (276-MBA-172 2 mg/mL pH 6 (Form A), 6 hrs): 96.51 | Retention Time 5.6 (purity of CV-8972) (276-MBA-172 2 mg/mL pH 7 (Form A), 0 hrs): 97.53 | Retention Time 5.6 (purity of CV-8972) (276-MBA-172 2 mg/mL pH 7 (Form A), 1 hrs): 95.06 | Retention Time 5.6 (purity of CV-8972) (276-MBA-172 2 mg/mL pH 7 (Form A), 4 hrs): 93.7 | Retention Time 5.6 (purity of CV-8972) (276-MBA-172 2 mg/mL pH 7 (Form A), 6 hrs): 92.12 | Retention Time 5.6 (purity of CV-8972) (276-MBA-172 2 mg/mL pH 7 (Form A), 22 hrs): 91.07 | Retention Time 5.6 (purity of CV-8972) (276-MBA-172 10 mg/mL pH 6 (Form A), 0 hrs): 95.24 | Retention Time 5.6 (purity of CV-8972) (276-MBA-172 10 mg/mL pH 6 (Form A), 1 hrs): 93.43 | Retention Time 5.6 (purity of CV-8972) (276-MBA-172 10 mg/mL pH 6 (Form A), 4 hrs): 91.82 | Retention Time 5.6 (purity of CV-8972) (276-MBA-172 10 mg/mL pH 6 (Form A), 6 hrs): 91.8 | Retention Time 5.6 (purity of CV-8972) (276-MBA-172 10 mg/mL pH 6 (Form A), 22 hrs): 89.66 | Retention Time 5.6 (purity of CV-8972) (276-MBA-172 10 mg/mL pH 7 (Form A), 0 hrs): 92.85 | Retention Time 5.6 (purity of CV-8972) (276-MBA-172 10 mg/mL pH 7 (Form A), 1 hrs): 89.05 | Retention Time 5.6 (purity of CV-8972) (276-MBA-172 10 mg/mL pH 7 (Form A), 4 hrs): 86.8 | Retention Time 5.6 (purity of CV-8972) (276-MBA-172 10 mg/mL pH 7 (Form A), 6 hrs): 84.79 | Retention Time 5.6 (purity of CV-8972) (289-MBA-15-A 2 mg/mL pH 6 (Form B), 0 hrs): 97.48 | Retention Time 5.6 (purity of CV-8972) (289-MBA-15-A 2 mg/mL pH 6 (Form B), 1 hrs): 95.1 | Retention Time 5.6 (purity of CV-8972) (289-MBA-15-A 2 mg/mL pH 6 (Form B), 4 hrs): 92.45 | Retention Time 5.6 (purity of CV-8972) (289-MBA-15-A 2 mg/mL pH 6 (Form B), 6 hrs): 90.65 | Retention Time 5.6 (purity of CV-8972) (289-MBA-15-A 2 mg/mL pH 6 (Form B), 22 hrs): 89.15 | Retention Time 5.6 (purity of CV-8972) (289-MBA-15-A 2 mg/mL pH 7 (Form B), 0 hrs): 97.48 | Retention Time 5.6 (purity of CV-8972) (289-MBA-15-A 2 mg/mL pH 7 (Form B), 1 hrs): 95.46 | Retention Time 5.6 (purity of CV-8972) (289-MBA-15-A 2 mg/mL pH 7 (Form B), 4 hrs): 93.92 | Retention Time 5.6 (purity of CV-8972) (289-MBA-15-A 10 mg/mL pH 6 (Form B), 0 hrs): 95.36 | Retention Time 5.6 (purity of CV-8972) (289-MBA-15-A 10 mg/mL pH 6 (Form B), 1 hrs): 94.81 | Retention Time 5.6 (purity of CV-8972) (289-MBA-15-A 10 mg/mL pH 6 (Form B), 4 hrs): 94.69 | Retention Time 5.6 (purity of CV-8972) (289-MBA-15-A 10 mg/mL pH 6 (Form B), 6 hrs): 94.39 | Retention Time 5.6 (purity of CV-8972) (289-MBA-15-A 10 mg/mL pH 6 (Form B), 22 hrs): 93.93 | Retention Time 5.6 (purity of CV-8972) (289-MBA-15-A 10 mg/mL pH 7 (Form B), 0 hrs): 91.5 | Retention Time 5.6 (purity of CV-8972) (289-MBA-15-A 10 mg/mL pH 7 (Form B), 1 hrs): 86.18 | Retention Time 5.6 (purity of CV-8972) (289-MBA-15-A 10 mg/mL pH 7 (Form B), 4 hrs): 82.36 | Retention Time 5.6 (purity of CV-8972) (289-MBA-15-A 10 mg/mL pH 7 (Form B), 6 hrs): 79.37
SMILES: COc1ccc(CN2CCN(CCOC(=O)c3cccnc3)CC2)c(OC)c1OC [CV-8972, 2-(4-(2,3,4-trimethoxybenzyl)piperazin-1-yl)ethyl nicotinate]
